Measurements published in patent US11377679B2, “Multi-well-based cell culture test device for rapid antibiotic susceptibility testing” (priority 2016, dated 2022).
≈ marks a conversion by molar mass, not a printed value.

Tests used:
Type in all cases: cell-based
[1] = tested on: P. aeruginosa ATCC 27853; experiment: antibiotic susceptibility testing using the cell culture test device (DRAST), reference strain; settings: Pseudomonas aeruginosa, ATCC27853, observed until 6 h
From the text: (§1) Referring first to (a) of FIG. 4, a liquid medium containing a gelling agent is mixed with a biological agent to prepare a mixture solution as a first fluid. The liquid medium may include at least about 95% by weight of water and can be solidified due to the presence of the gelling agent. As the gelling agent, there may be exemplified agar, agarose, gelatin, alginate, collagen or fibrin. The use of agar or agarose is preferred. For example, agar may be used in an amount of 0.5 to 4% by weight in the liquid medium. The liquid medium usually requires no nutrients. In some examples, however, the liquid medium may include nutrients. The liquid medium may be a solution including a medium stimulating the division of particular cells.
(§2) Referring next to (b) of FIG. 4, the mixture solution is provided to a recess 421 formed at the bottom of a first sub-well. The mixture solution may be loaded in an amount corresponding to the volume of the recess of the first sub-well. The volume of the mixture solution loaded into the recess of the first sub-well is preferably from 10 μl to 200 μl, more preferably from 10 μl to 150 μl. If the volume of the mixture solution loaded into the first sub-well is less than the lower limit, the density of cells in the mixture solution is low, making it difficult to observe the cells. […]

[2] = tested on: P. aeruginosa; experiment: susceptibility testing using the cell culture test device (DRAST), strain from blood sample
From the text: as §1
(§3) Referring next to (b) of FIG. 4, the mixture solution is provided to a recess 421 formed at the bottom of a first sub-well. The mixture solution may be loaded in an amount corresponding to the volume of the recess of the first sub-well. The volume of the mixture solution loaded into the recess of the first sub-well is preferably from 10 μl to 200 μl, more preferably from 10 μl to 150 μl. If the volume of the mixture solution loaded into the first sub-well is less than the lower limit, the density of cells in the mixture solution is low, making it difficult to observe the cells. Meanwhile, if the volume of the mixture solution loaded into the first sub-well exceeds the upper limit, the mixture solution may overflow into a second sub-well beyond a barrier. […] The micropatterned groove also allows the mixture solution to be well fixed to the desired area. […] Referring to FIG. 5, a micropatterned groove 522 is formed in the well a sample to fix the sample to only the desired area.
(§4) A blood sample positive for bacterial infection is collected and diluted with a medium containing a gelling agent.
(§5) The mixture solution is solidified to form a solid thin film immobilized with the biological agent. When the temperature of the liquid medium drops, the medium is solidified, which restricts the mobility of the biological agent. This immobilization facilitates continuous observation of the motile biological agent.
(§6) As shown in (c) of FIG. 4, a second sub-well 430 including a bioactive agent in a solid form is provided with a solvent capable of dissolving the bioactive agent. When a bioactive agent is absent in the second sub-well 430, a solution containing a bioactive agent can be provided to the second sub-well 430. Herein, the bioactive agent may include a substance selected from antibiotics, anticancer agents, drugs such as immunosuppressants, nutrients, cellular secretions, signal transducers, viruses, cells, micro RNAs, proteins, antigens, antibodies, and DNA.

[3] = tested on: P. aeruginosa; experiment: broth microdilution (BMD) susceptibility testing, strain from blood sample; settings: BMD testing method
Protocol: (§7) The tests were conducted on various antibiotics that are currently used in testing organizations. […] The concentrations shown in FIG. 12 are expressed in μg/mL.

[4] = tested on: E. faecalis ATCC 29212; experiment: antibiotic susceptibility testing using the cell culture test device (DRAST), reference strain; settings: Enterococcus faecalis, ATCC29212, observed until 6 h
From the text: as §1, §2

[5] = tested on: Enterobacter aerogenes; experiment: susceptibility testing using the cell culture test device (DRAST), strain from blood sample; settings: E. aerogenes from blood sample
From the text: as §1, §3, §4, §5, §6

[6] = tested on: Enterobacter aerogenes; experiment: broth microdilution (BMD) susceptibility testing, strain from blood sample; settings: E. aerogenes from blood sample; BMD testing method
Protocol: as §7

| Compound | MIC [1] [µg/mL] | susceptibility category [2] | susceptibility category [3] | MIC [4] [µg/mL] | susceptibility category [5] | susceptibility category [6] |
| --- | --- | --- | --- | --- | --- | --- |
| C[C@H]1[C@H](NC(=O)/C(=N\OC(C)(C)C(=O)O)c2csc(N)n2)C(=O)N1S(=O)(=O)O [aztreonam] | 8 (≈ 18.4 µM) | susceptible | I |  |  |  |
| CO/N=C(\C(=O)N[C@@H]1C(=O)N2C(C(=O)O)=C(COC(C)=O)CS[C@H]12)c1csc(N)n1 [cefotaxime] |  | susceptible | I |  |  |  |
| CN(C)[C@@H]1C(O)=C(C(N)=O)C(=O)[C@@]2(O)C(O)=C3C(=O)c4c(O)cccc4[C@@](C)(O)[C@H]3C[C@@H]12 [tetracycline] |  |  |  | 8 (≈ 18 µM) |  |  |
| CC1(C)S[C@@H]2[C@H](NC(=O)[C@H](C(=O)O)c3ccsc3)C(=O)N2[C@H]1C(=O)O [ticarcillin] |  | susceptible | I |  |  |  |
| colistin |  | I | susceptible |  | I | S |
